Results reported in patent US5437982A, “Methods of identifying specific inactivation gate inhibitors of the sodium channel” (University of Washington, priority 1993, dated 1995).
Entries after “also recorded” stand apart in the source; their conditions may differ. Where a SMILES comes first, the peptide text is derived from it.

Tests used:
Type in all cases: cell-based
[1] = biological target: sodium channel in CNaIIA cells (Rattus norvegicus, UniProt P04775); test: Blocking of the sodium channel in CNaIIA cells by IFM-amide during repetitive stimulation; settings: for dependence of inhibition of sodium channels / sodium channel blocking: repetitive stimulation; for sodium channel blocking: FIGS. 7 and 8
From the text: It was reasoned that a tripeptide IFM-amide could be an effective inactivation gate peptide since it contains both the critical IFM residues and the charge of the unblocked α-amino group in the isoleucine residue. […] During repetitive stimulation, increased inhibition is observed with each succeeding pulse (pulse #) until a steady state is reached (FIG. 7). The degree of inhibition at steady state is dependent on the frequency of the stimulation pulses (% Ipulse #1; FIG. 7) and on the voltage of the stimulating pulses (FIG. 8). […] This implies that IFM amide has greater intrinsic affinity for the receptor site that blocks the sodium channel.

[2] = system: mutant F1489Q sodium channels; test: Restoration of inactivation in mutant sodium channels transiently expressed in TSQ-201 cells; settings: for inactivation of mutant (F1489Q) sodium channels: peptide perfused at 1 mM into TSQ-201 cells, FIG. 4
Protocol: (§1) Experiments were performed on wild-type Type IIA sodium channels stably transfected into Chinese hamster ovary (CHO) cells (CNalIA-1; as described in citation 23, which is incorporated herein by reference) and mutant (F1489Q) sodium channels transiently transfected into human kidney carcinoma cells (as described in citations 24 and 25, which are incorporated herein by reference).
Mutant F1489Q sodium channels were transiently expressed in TSQ-201 cells (24). The mutant channels in the cells activated normally but inactivated very slowly. […] The time course of inactivation for the mutant channels was dramatically slowed over the entire voltage range. Having established the properties of the test cells and mutant channels, the peptides KIFMK and KIQMK were next tested. KIFMK or KIQMK were perfused (at a concentration of 1 mM) into the TSQ-201 cells expressing the mutant (F1489Q) sodium channels.

[3] = biological target: Wild-type IIA sodium channels (Rattus norvegicus, UniProt P04775); test: Competition with the normal inactivation process: tail currents by whole-cell voltage clamp; settings: cell perfused with peptide; for macroscopic sodium current elicited by depolarizing test pulse to 0 mV: versus controls; for tail currents elicited by repolarization pulse: from 0 to -80 mV, FIG. 5
From the text: Considering binding of KIFMK inactivation gate peptide to putative inactivation gate receptor site(s) in the intracellular mouth of the sodium channel, peptide binding might prevent channel closure by the natural inactivation gate due to steric hindrance. In this model, closure of the inactivation gate would be prevented by the drug and after depolarization-induced opening, repolarization should cause the peptide to dissociate from the channel, leaving the channel open for a "brief period" of time before closure and inactivation can block the channel. The existence of the "brief period" of channel opening was captured and recorded as a rising component of tail current in the following experiments.
Wild-type IIA sodium channels were recorded using a whole-cell voltage clamp method. Under the recording conditions used, the sodium channels have tail currents upon rapid repolarization that declined exponentially without a rising phase because the channel rapidly closes upon repolarization (FIG. 5A). The magnitude of the tail currents decreases as the duration of the test pulse is increased. Repetitive pulsing created a family of tail current recordings that decreased exponentially (from a starting level near that of the sodium current), without any rising component in the recorded curves (FIG. 5A). […] The amplitude of the rising component of the latter tail currents decreased with increasing pulse duration as the macroscopic sodium current decreased.

[4] = biological target: wild-type Type IIA sodium channels (Rattus norvegicus, UniProt P04775); test: Voltage- and frequency-dependent block of sodium channels, sodium currents recorded in CNaIIA-1 cells; settings: for block of rapidly cycling type IIA sodium channels over the entire voltage range: 10 Hz voltage pulses, -50 to +100 mV
Protocol: as §1
The effects of the KIFMK gate peptide on sodium channels was tested by backfilling an electrode with a recording solution containing 1 mM peptide after loading the tip of the electrode with a buffer of peptide-free solution (i.e., to enhance seal formation when the electrode was inserted into a cell). After forming a high-resistance seal and breaking through the cell membrane, the peptide rapidly diffused into the cell and caused the appearance of tail currents (see below) within 10 minutes. When stabilized, sodium currents were recorded in the cells before and after a series of 10 Hz voltage pulses that varied over the range -50 to +100 mV. Parallel control experiments were conducted in which electrodes were not backfilled with peptides. The magnitude of the sodium currents in the experimental and control preparations were compared.
As a control, a KIQMK peptide was prepared to mimic the sequence present in mutant F 1489Q sodium channels.

[5] = biological target: scorpion-toxin modified wild-type sodium channels (Rattus norvegicus, UniProt P04775); test: Inactivation in scorpion-toxin modified wild-type sodium channels in CNaIIA-1 cells; settings: 100 nM LqTx in bath; test voltage to 0 mV; FIG. 6
From the text: Externally applied alpha-scorpion toxins slow sodium channel inactivation without affecting activation (reviewed in 26). Sodium currents in stably transfected CNaIIA-1 cells respond to a depolarizing test voltage to 0 mV with rapid activation and inactivation of the sodium channel. […] KIQMK, on the other hand, had no effect (FIG. 6).

Na+ channels = test: Structural specificity: ability of peptides to block sodium channels and restore fast inactivation; settings: qualitative summary; methods similar to Examples 1-4
From the text: The results of these experiments are summarized qualitatively below.

Sequence of sodium channel in CNaIIA cells (P04775 whole entry): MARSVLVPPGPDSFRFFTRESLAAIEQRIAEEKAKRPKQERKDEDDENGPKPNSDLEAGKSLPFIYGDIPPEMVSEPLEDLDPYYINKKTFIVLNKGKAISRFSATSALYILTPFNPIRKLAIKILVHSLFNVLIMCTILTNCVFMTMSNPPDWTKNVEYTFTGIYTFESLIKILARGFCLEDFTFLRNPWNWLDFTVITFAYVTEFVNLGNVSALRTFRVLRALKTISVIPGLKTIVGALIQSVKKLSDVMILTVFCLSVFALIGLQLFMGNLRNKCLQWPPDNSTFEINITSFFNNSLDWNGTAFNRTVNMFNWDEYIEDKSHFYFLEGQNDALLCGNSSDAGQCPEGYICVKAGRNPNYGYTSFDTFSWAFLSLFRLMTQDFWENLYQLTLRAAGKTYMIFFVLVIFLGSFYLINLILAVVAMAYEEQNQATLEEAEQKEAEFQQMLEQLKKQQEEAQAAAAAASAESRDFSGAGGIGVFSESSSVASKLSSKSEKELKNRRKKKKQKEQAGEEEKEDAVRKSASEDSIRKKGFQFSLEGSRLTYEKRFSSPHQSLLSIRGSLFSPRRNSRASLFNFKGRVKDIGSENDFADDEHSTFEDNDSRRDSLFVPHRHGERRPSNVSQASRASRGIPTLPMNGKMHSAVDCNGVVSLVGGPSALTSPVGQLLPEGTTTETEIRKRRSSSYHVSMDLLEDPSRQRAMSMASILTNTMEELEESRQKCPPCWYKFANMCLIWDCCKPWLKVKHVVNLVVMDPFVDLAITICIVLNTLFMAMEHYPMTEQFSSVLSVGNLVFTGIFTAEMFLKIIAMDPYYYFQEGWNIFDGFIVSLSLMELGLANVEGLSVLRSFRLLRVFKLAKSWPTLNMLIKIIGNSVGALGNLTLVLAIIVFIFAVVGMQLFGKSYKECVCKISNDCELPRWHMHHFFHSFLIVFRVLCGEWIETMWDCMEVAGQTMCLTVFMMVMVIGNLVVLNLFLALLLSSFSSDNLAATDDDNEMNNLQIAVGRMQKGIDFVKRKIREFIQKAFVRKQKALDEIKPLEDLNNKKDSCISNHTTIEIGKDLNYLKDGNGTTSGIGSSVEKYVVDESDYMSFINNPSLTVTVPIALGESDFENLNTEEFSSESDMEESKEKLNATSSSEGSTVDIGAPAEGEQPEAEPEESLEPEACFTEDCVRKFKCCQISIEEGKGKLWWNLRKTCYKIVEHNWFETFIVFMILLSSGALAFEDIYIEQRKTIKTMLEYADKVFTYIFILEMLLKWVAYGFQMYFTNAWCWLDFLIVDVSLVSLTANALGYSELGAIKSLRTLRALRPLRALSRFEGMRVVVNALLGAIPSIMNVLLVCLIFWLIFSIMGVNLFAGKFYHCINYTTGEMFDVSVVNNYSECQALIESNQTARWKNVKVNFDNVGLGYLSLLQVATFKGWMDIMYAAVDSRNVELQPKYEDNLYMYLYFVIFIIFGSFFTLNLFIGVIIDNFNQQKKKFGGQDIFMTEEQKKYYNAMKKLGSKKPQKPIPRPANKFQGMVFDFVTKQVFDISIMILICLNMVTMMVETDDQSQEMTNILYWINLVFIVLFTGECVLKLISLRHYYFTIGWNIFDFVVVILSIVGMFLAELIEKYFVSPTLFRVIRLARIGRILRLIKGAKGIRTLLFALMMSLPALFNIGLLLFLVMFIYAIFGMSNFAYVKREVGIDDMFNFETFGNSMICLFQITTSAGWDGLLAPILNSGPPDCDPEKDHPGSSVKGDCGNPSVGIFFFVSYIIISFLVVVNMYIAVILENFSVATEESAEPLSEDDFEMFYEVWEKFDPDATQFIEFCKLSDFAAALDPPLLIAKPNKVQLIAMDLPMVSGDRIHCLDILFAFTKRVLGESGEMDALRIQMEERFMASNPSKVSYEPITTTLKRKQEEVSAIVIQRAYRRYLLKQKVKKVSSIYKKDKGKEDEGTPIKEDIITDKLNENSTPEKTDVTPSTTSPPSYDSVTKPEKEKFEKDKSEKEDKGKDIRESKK
Sequence of scorpion-toxin modified wild-type sodium channels (P04775 whole entry): as above
Sequence of Wild-type IIA sodium channels (P04775 whole entry, the tested form may be a part): as the sequence (P04775 whole entry) above
Sequence of wild-type Type IIA sodium channels (P04775 whole entry): as above

CC[C@H](C)[C@H](N)C(=O)N[C@@H](Cc1ccccc1)C(=O)N[C@@H](CCSC)C(N)=O [IFM-amide] (H-Ile-Phe-Met-NH2)
membrane potentials at which block is effective, compared with KIFMK ([1]; compare FIGS. 3 and 8): effective sodium channel blocker at much more negative membrane potentials than KIFMK
blocking activity compared with IFM free acid or acetyl IFM free acid ([1]; experiments like those in Example 6): increased blocking activity
dependence of inhibition of sodium channels [1]: voltage-sensitive blocking
sodium channel blocking [1]: blocking of the sodium channel
sodium channel blocking ([1]; listed as IFM amide): very effective sodium channel blocker
dependence of inhibition of sodium channels ([1]; listed as IFM amide): voltage- and frequency-dependent

CC[C@H](C)[C@H](NC(=O)[C@H](CCCCN)NC(C)=O)C(=O)N[C@@H](Cc1ccccc1)C(=O)N[C@@H](CCSC)C(=O)N[C@@H](CCCCN)C(N)=O [KIFMK, acetyl-KIFMK-amide]
time to steady-state level of inhibition ([2]; 1 mM peptide): less than 2 ms
course and extent of induced inactivation ([2]; 1 mM, compared with wild-type channel function): rapid but incomplete
inactivation of mutant (F1489Q) sodium channels [2]: restore inactivation; also recorded: successfully inactivated
macroscopic sodium current elicited by depolarizing test pulse to 0 mV [3]: decayed with a time course faster than that of controls
tail currents elicited by repolarization pulse [3]: rose to a peak and then decayed much more slowly than in controls; also recorded: significant tail currents
time to appearance of tail currents after peptide diffusion into the cell ([4]; 1 mM peptide in backfilled electrode): ≤ 10 min
reduction (inhibition) of sodium currents in response to frequent depolarizing pulses ([4]; 1 mM peptide in electrode, 10 Hz pulses, after 15 min perfusion/cycling): substantial level of inhibition; also recorded: substantially reduced
channel block by 10 Hz pulses given at 100 mV ([4]; 1 mM peptide, FIG. 3): completely blocked
reduction in sodium current when cell membranes not depolarized frequently ([4]; 1 mM peptide, closed channels): Little reduction
blockage of currents generated in response to 10 Hz pulses at positive voltages ([4]; 1 mM peptide, greater than 0 mV): substantial
block of rapidly cycling type IIA sodium channels over the entire voltage range ([4]; FIG. 3): inhibited
inhibition of sodium currents within 4 minutes of cycling ([4]; FIG. 2A, relative to control recording without peptide): insignificant level of inhibition
character of the inhibitory effect on the sodium channel ([4]; combined results of Example 1): strong and voltage- and frequency-dependent
initial rate of sodium channel inactivation in presence of α-scorpion toxin [5]: significantly accelerated; also recorded: partially restore inactivation activity

Ac-DIFMT-NH2 [acetyl-DIFMT-amide]
Inhibition of Na+ channels (Na+ channels): ineffective

Ac-KIQMK-NH2 [KIQMK, acetyl-KIQMK-amide, reference compound]
inactivation of mutant (F1489Q) sodium channels [2]: without effect; also recorded: did not
macroscopic sodium current elicited by depolarizing test pulse to 0 mV [3]: no significant effect
tail currents elicited by repolarization pulse [3]: no significant effect; also recorded: no significant gating currents
block of rapidly cycling type IIA sodium channels over the entire voltage range ([4]; FIG. 3): inactive; also recorded: did not block
initial rate of sodium channel inactivation in presence of α-scorpion toxin [5]: no effect
